According to patent US20220411388A1, “SUBSTITUTED IMIDAZOLE CARBOXAMIDES AND THEIR USE IN THE TREATMENT OF MEDICAL DISORDERS” (Bial - R&D Investments, S.A., priority 2019, published 2022):
In brackets after ≈: the same amount, converted by molar mass.

Tests used:
acid ceramidase (hACR) = molecular target: T1, acid ceramidase (hACR) (Homo sapiens, UniProt Q13510); assay: Acid ceramidase inhibition, biochemical fluorescent assay with cell lysates overexpressing acid ceramidase (substrate Rbm14-12); conditions: cell lysate, 1 hr preincubation at RT, pH 4.5, Rbm14-12 6.3 μM; read-out: IC50 hACR
T1 construct: expressed in transfected cells
T1 sequence (Q13510 22-395): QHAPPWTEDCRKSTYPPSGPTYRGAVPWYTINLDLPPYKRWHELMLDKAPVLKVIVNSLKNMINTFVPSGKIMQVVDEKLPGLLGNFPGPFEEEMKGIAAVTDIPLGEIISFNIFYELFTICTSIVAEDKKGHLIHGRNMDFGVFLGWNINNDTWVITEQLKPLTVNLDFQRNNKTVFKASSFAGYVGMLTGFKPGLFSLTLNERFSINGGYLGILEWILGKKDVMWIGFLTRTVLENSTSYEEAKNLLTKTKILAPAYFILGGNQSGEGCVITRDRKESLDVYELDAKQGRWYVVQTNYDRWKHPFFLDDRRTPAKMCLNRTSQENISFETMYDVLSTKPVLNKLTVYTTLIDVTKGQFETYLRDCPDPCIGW
Summary of the method: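 Enzyme source was lysate from cells overexpressing acid ceramidase, 10 µg protein per reaction. Compounds were preincubated 1 h at RT in 25 mM NaAc, 100 mM NaCl, pH 4.5.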

[1] = Compound solubility in water; format: physicochemical

Row | SMILES | IC50 (acid ceramidase (hACR)) [µM] | solubility [1] [µg/mL]
1 | COc1nc(C)cn1C(=O)NCCCC(C)C [Example 142, 2-Methoxy-4-methyl-N-(4-methylpentyl)-1H-imidazole-1-carboxamide] | 0.2 to 1 | 22 (≈ 91.9 µM)
2 | COc1nc(C)cn1C(=O)NCCCC1(C(F)(F)F)CC1 [Example 145, 2-Methoxy-4-methyl-N-(3-(1-(trifluoromethyl)cyclopropyl)propyl)-1H-imidazole-1-carboxamide] | < 0.2 | 28 (≈ 91.7 µM)
3 | CC(C)CNC(=O)n1cnc(C(C)(C)C)c1 [Example 87, 4-(tert-Butyl)-N-iso-butyl-1H-imidazole-1-carboxamide] | 0.2 to 1 | 17 (≈ 76.1 µM)
4 | COc1nccn1C(=O)NCCC(C)C [Example 78, N-iso-pentyl-2-methoxy-1H-imidazole-1-carboxamide] | 0.2 to 1 | 28 (≈ 133 µM)
5 | Cc1cn(C(=O)NCCc2ccccc2)c(OCCN2CCOCC2)n1 [Example 159, 4-Methyl-2-(2-morpholinoethoxy)-N-phenethyl-1H-imidazole-1-carboxamide] | < 0.2 | 35 (≈ 97.6 µM)
6 | CN1CCC(c2cn(C(=O)NCCCC3(C(F)(F)F)CC3)cn2)CC1 [Example 174, 4-(1-Methylpiperidin-4-yl)-N-(3-(1-(trifluoromethyl)cyclopropyl)propyl)-1H-imidazole-1-carboxamide] | < 0.2 | 25 (≈ 69.8 µM)
7 | O=C(NCCC1CCCC1(F)F)n1cc(Cl)nc1OCCN1CCOCC1 (stereo not drawn) [Example 191, 4-Chloro-N-(2-(2,2-difluorocyclopentyl)ethyl)-2-(2-morpholinoethoxy)-1H-imidazole-1-carboxamide] | 0.2 to 1 | 33 (≈ 81.1 µM)
8 | COc1nc(C(C)(C)C)cn1C(=O)NCCC(C)C [Example 57, 4-(tert-Butyl)-N-isopentyl-2-methoxy-1H-imidazole-1-carboxamide] | 0.2 to 1 | 13.3 (≈ 49.7 µM)
9 | CCc1cn(C(=O)NCCC(C)C)c(OC)n1 [Example 77, 4-Ethyl-N-iso-pentyl-2-methoxy-1H-imidazole-1-carboxamide] | 0.2 to 1 | 23 (≈ 96.1 µM)
10 | COc1nc(C)cn1C(=O)NCC#CCc1ccccc1 [Example 181, 2-Methoxy-4-methyl-N-(4-phenylbut-2-yn-1-yl)-1H-imidazole-1-carboxamide] | < 0.2 | 22 (≈ 77.6 µM)
11 | COc1nc(C2CC2)cn1C(=O)NCCC(C)C [Example 127, 4-Cyclopropyl-N-iso-pentyl-2-methoxy-1H-imidazole-1-carboxamide] | > 1 | 23 (≈ 91.5 µM)
12 | COc1nc(C)cn1C(=O)NCCCc1ccccc1 [Example 141, 2-Methoxy-4-methyl-N-(3-phenylpropyl)-1H-imidazole-1-carboxamide] | < 0.2 | 24 (≈ 87.8 µM)
13 | COc1nc(C(C)C)cn1C(=O)NCCC(C)C [Example 76] | 0.2 to 1 | 20 (≈ 78.9 µM)
14 | COc1nc(C)cn1C(=O)NCCC1CC(F)(F)C1 [Example 166, N-(2-(3,3-Difluorocyclobutyl)ethyl)-2-methoxy-4-methyl-1H-imidazole-1-carboxamide] | 0.2 to 1 | 30 (≈ 110 µM)
15 | CCOc1nc(-c2cccnc2)cn1C(=O)NCCC(C)C [Example 67, 2-Ethoxy-N-iso-pentyl-4-(pyridin-3-yl)-1H-imidazole-1-carboxamide] | > 1 | 8 (≈ 26.5 µM)
16 | COc1nc(C(C)(C)C)cn1C(=O)NC1CCOCC1 [Example 114, 4-(tert-Butyl)-2-methoxy-N-(tetrahydro-2H-pyran-4-yl)-1H-imidazole-1-carboxamide] | 0.2 to 1 | 29 (≈ 103 µM)
17 | COc1nccn1C(=O)NCCCC1(C(F)(F)F)CC1 [Example 137, 2-Methoxy-N-(3-(1-(trifluoromethyl)cyclopropyl)propyl)-1H-imidazole-1-carboxamide] | < 0.2 | 29 (≈ 99.6 µM)
18 | COc1nc(C)cn1C(=O)NC1CCC(F)(F)CC1 [Example 152, N-(4,4-difluorocyclohexyl)-2-methoxy-4-methyl-1H-imidazole-1-carboxamide] | > 1 | 30 (≈ 110 µM)
19 | COc1nc(C)cn1C(=O)NCCC1CCC(F)(F)C1 (stereo not drawn) [Example 154, N-(2-(3,3-Difluorocyclopentyl)ethyl)-2-methoxy-4-methyl-1H-imidazole-1-carboxamide] | 0.2 to 1 | 30 (≈ 104 µM)
20 | COc1nc(C2CC2)cn1C(=O)NC1CC1 [Example 125, N,4-Dicyclopropyl-2-methoxy-1H-imidazole-1-carboxamide] | > 1 | 14 (≈ 63.3 µM)
21 | COc1nc(C(C)(C)C#N)cn1C(=O)NCCC(C)C [Example 81, 4-(2-Cyanopropan-2-yl)-N-iso-pentyl-2-methoxy-1H-imidazole-1-carboxamide] | > 1 | 23 (≈ 82.6 µM)
22 | COc1nc(C2CCCCC2)cn1C(=O)NCCC(C)C [Example 109, 4-Cyclohexyl-N-iso-pentyl-2-methoxy-1H-imidazole-1-carboxamide] | 0.2 to 1 | 13 (≈ 44.3 µM)
23 | Cc1cn(C(=O)NCC#Cc2ccccc2)c(OCCN2CCN(C)CC2)n1 [Example 197, 4-Methyl-2-(2-(4-methylpiperazin-1-yl)ethoxy)-N-(3-phenylprop-2-yn-1-yl)-1H-imidazole-1-carboxamide] | < 0.2 | 38 (≈ 99.6 µM)

The remaining lines, values ahead:

Row | IC50 (acid ceramidase (hACR)) [µM] | solubility [1] [µg/mL] | SMILES
24 | < 0.2 | 3.1 (≈ 12 µM) | CC(C)CCNC(=O)n1cnc(-c2ccccc2)c1 [Example 27, N-iso-Pentyl-4-phenyl-1H-imidazole-1-carboxamide]
25 | < 0.2 | 0.8 (≈ 2.78 µM) | CC(C)(C)c1cn(C(=O)NCCOc2ccccc2)cn1 [Example 19, 4-tert-Butyl-N-(2-phenoxyethyl)-1H-imidazole-1-carboxamide]
26 | 0.2 to 1 | 32 (≈ 122 µM) | O=C(NCCC1CC1)n1cnc(-c2cscn2)c1 [Example 69, N-(2-Cyclopropylethyl)-4-(thiazol-4-yl)-1H-imidazole-1-carboxamide]
27 | > 1 | 12.6 (≈ 45.9 µM) | CC(C)OCCNC(=O)n1cnc(-c2cccnc2)c1 [Example 24, N-(2-iso-Propoxyethyl)-4-(pyridin-3-yl)-1H-imidazole-1-carboxamide]
28 | 0.2 to 1 | 1.9 (≈ 7.44 µM) | O=C(NCCC1CC1)n1cnc(-c2ccccc2)c1 [Example 26, N-(2-Cyclopropylethyl)-4-phenyl-1H-imidazole-1-carboxamide]
29 | 0.2 to 1 | 22.3 (≈ 81.9 µM) | CC(C)CC(C)NC(=O)n1cnc(-c2cccnc2)c1 (stereo not drawn) [Example 59, N-(4-Methylpentan-2-yl)-4-(pyridin-3-yl)-1H-imidazole-1-carboxamide]
30 | > 1 | 22.1 (≈ 85.6 µM) | CC(C)CCNC(=O)n1cnc(-c2ccncc2)c1 [Example 41, N-iso-Pentyl-4-(pyridin-4-yl)-1H-imidazole-1-carboxamide]
31 | 0.2 to 1 | 21.1 (≈ 72.2 µM) | O=C(NCCc1ccccc1)n1cnc(-c2ccccn2)c1 [Example 4, N-Phenethyl-4-(pyridin-2-yl)-1H-imidazole-1-carboxamide]
32 | 0.2 to 1 | 21.5 (≈ 83.2 µM) | CC(C)CCNC(=O)n1cnc(-c2cccnc2)c1 [Example 21, N-iso-Pentyl-4-(pyridin-3-yl)-1H-imidazole-1-carboxamide]
33 | > 1 | 25 (≈ 80 µM) | O=C(NCCC1CC1)n1cc(-c2cccnc2)nc1OC1CC1 [Example 66, 2-Cyclopropoxy-N-(2-cyclopropylethyl)-4-(pyridin-3-yl)-1H-imidazole-1-carboxamide]
34 | > 1 | 34 (≈ 129 µM) | O=C(NCCC1CC1)n1cnc(-n2ccc(F)n2)c1 [Example 74, N-(2-Cyclopropylethyl)-4-(3-fluoro-1H-pyrazol-1-yl)-1H-imidazole-1-carboxamide]
35 | > 1 | 19.1 (≈ 78.2 µM) | CC(C)CNC(=O)n1cnc(-c2cccnc2)c1 [Example 35, N-iso-Butyl-4-(pyridin-3-yl)-1H-imidazole-1-carboxamide]
36 | > 1 | 27 (≈ 105 µM) | COc1nc(-c2ccccc2)cn1C(=O)NC1CC1 [Example 140, N-Cyclopropyl-2-methoxy-4-phenyl-1H-imidazole-1-carboxamide]
